These results are taken from patent US12116636B2, “Methods for evaluating tumor cell spheroids using 3D microfluidic cell culture device” (Dana-Farber Cancer Institute, Inc., priority 2017, dated 2024).

For one experiment, the system named is MB49 allograft. The experiment is described as follows: In vivo Compound 1 combination treatment, allograft. Further details: species or system B6 mice. The conditions noted are these: Cmpd1 + αPD-L1.
In another experiment the test system is B16F10 lung metastases. Kind of experiment: B16F10 tail vein injection model, lung metastases. Format: in vivo, mice. The conditions noted are these: Compound 1 40 mg/kg daily 13 days ± anti-PD-L1 10 mg/kg. The procedure: (§1) Combination studies were performed by vivoPharm (Hummelstown, PA, USA). All procedures used in the performance of these studies were carried out in accordance with vivoPharm's Standard Operating Procedures, with particular reference to US_SOPvP_EF0314 “General Procedures for Efficacy Studies.” CT26 colon carcinoma cells (1×10^6 cells/mouse in 100 μL, passage 2-3) were re-suspended in serum-free DMEM and implanted in the upper right flank of 11-12 week old female Balb/c mice (Charles River Laboratories). Mice were randomized into four groups of 10 using a matched pair distribution method based on tumor size for CT26. Treatment was initiated 12 days post-inoculation with mean tumor volume at start of dosing of 125.85 mm^3. Vehicle or Compound 1 (40 mg/kg) was administered by oral gavage daily for 26 days and isotype control or a reverse chimera anti-PD-L1 cloned from literature reports (e.g., Deng, R. et al. MAbs (2016), the content of which is incorporated herein by reference in entirety) and placed into a mouse IgG1 framework (10 mg/kg) was administered every 5 days for a total of six doses. Investigators were not blinded to treatment groups. […] Mice were scarified on Day 13 and lung metastases were quantified (small≤1 mm, medium>1 mm and ≤3 mm, large>3 mm). No large lung metastases were detected.

The subject of a further experiment is CT26 allograft. Kind of experiment: In vivo Compound 1 combination treatment, allograft. Further details: species or system Balb/c mice. The conditions noted are these: Compound 1 40 mg/kg oral daily + anti-PD-L1 10 mg/kg every 5 days. How it is done: as §1
In another experiment the test system is MC38 MDOTS. The experiment is described as follows: Live/dead (AO/PI) staining of MDOTS in 3D microfluidic culture. Type of experiment: cell-based, murine. The conditions noted are these: Cmpd1 1 μM + αPD-1, 5 days; not significant vs single-agent PD-1. The procedure:
Fresh tumor specimens (murine and human patients) were received in media (DMEM) on ice and minced in a 10 cm dish (on ice) using sterile forceps and scalpel. Minced tumor was resuspended in DMEM (4.5 mM glucose, […] sodium pyruvate, 1:100 penicillin-streptomycin) (Coming CellGro, Manassas, VA)+10% FBS (Gemini Bio-Products, West Sacramento, CA), 100 U/mL collagenase type IV (Life Technologies, Carlsbad, CA), and 15 mM HEPES (Life Technologies, Carlsbad, CA), except for CT26 tumors that were prepared in RPMI. Samples were pelleted and resuspended in 10-20 mL media. Red blood cells were removed from visibly bloody samples using RBC Lysis Buffer (Boston Bio-Products, Ashland, MA). […]
Dual labeling was performed by loading microfluidic device with Nexcelom ViaStain™ (fluorescent cell viability dye) AO/PI Staining Solution (Nexcelom, CS2-0106). Following incubation with the dyes (20 minutes at room temperature in the dark), images were captured on a Nikon Eclipse 80i fluorescence microscope equipped with Z-stack (Prior) and CoolSNAP CCD camera (Roper Scientific). […] Live and dead cell quantitation was performed by measuring total cell area of each dye. […]

For `N#Cc1cc(-c2ncnc(Nc3ccc(N4CCN(C5COC5)CC4)cc3)n2)ccc1OC1CCOCC1` [Compound 1, 5-(4-((4-(4-(oxetan-3-yl)piperazin-1-yl)phenyl)amino)-1,3,5-triazin-2-yl)-2-((tetrahydro-2H-pyran-4-yl)oxy)benzonitrile], the “response to combination treatment in vivo, MB49 bladder carcinoma” value in the experiment on MB49 allograft is “enhanced response”. Besides, the “sensitization of B16F10 tail vein injection model (lung metastases)” value with B16F10 lung metastases was “could not be sensitized”. Further, in the experiment on CT26 allograft, the “survival, CT26 allograft, combination vs Cmpd1 or anti-PD-L1 alone” value is “longer survival” and the “tumour control, CT26 allograft, combination vs Cmpd1 or anti-PD-L1 alone” value is reported as “greater tumour control”. In addition, in the experiment on MC38 MDOTS, the “ex vivo killing of MC38 MDOTS, combination treatment” value is on record as “enhanced”.
